Molecular target: T1, recombinant, membrane-bound mPGES-1 (Homo sapiens, UniProt O14684)
T1 sequence (O14684 1-152): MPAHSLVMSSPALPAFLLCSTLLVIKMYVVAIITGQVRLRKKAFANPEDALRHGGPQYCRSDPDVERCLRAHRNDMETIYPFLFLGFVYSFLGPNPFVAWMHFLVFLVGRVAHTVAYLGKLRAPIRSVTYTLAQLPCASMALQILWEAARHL
Assay: Thiobarbituric acid assay (TBA-MDA assay), inhibition of mPGES-1
Assay type: biochemical
Settings: remaining PGH2 measured at 535 nm
From the text: Malondialdehyde is a product of lipid peroxidation and reacts with thiobarbituric acid forming a red product that absorbs at 535 nm (W. G. Niehaus, Jr and B. Samuelsson, Eur. J. Biochem 6, 126 (1968). The extinction coefficient of the TBA-MDA conjugate is 1.56×10^5 M^−1 cm^−1 (E. D. Wills. Biochem. J. 113, 315 (1969).
The method used for detection of inhibition of mPGES-1 is based on the detection of the amount of remaining PGH2. This method was described more than 20 years ago by Basevich et al (Bioorg. Khim. 1983, 9(5), 658-665.
The assay used was a modified variant and used citric acid instead of the TCA-TBA-HCl reagent described in the original assay. In this assay recombinant, membrane-bound mPGES-1 was incubated with PGH2. The reaction was stopped by adding citric acid with a final pH of 3 and a large excess of FeCl2 (20 mM) to convert any remaining PGH2 into MDA and […]. TBA reagent was finally added (0.67%) and the samples were heated at 80° C. for 30 min. The absorbance of the conjugate was measured at 535 nm.
The product of mPGES-1 (PGE2) was not measured directly in this assay, but rather the remaining substrate (PGH2) indirectly by adding FeCl2 that converts PGH2 into […] and 12-HHT. As a positive control a known mPGES-1 inhibitor, MK-886, was used and the new inhibitors were compared with the inhibition of MK-886 (% of MK-886 inhibition).

| SMILES | IC50 [nM] |
| --- | --- |
| C[C@H](NC(=O)c1cccc(NC(=O)c2ccccc2F)c1)c1cccc2ccccc12 [Compound 73, 2-Fluoro-N-[3-((S)-1-naphthalen-1-yl-ethylcarbamoyl)-phenyl]-benzamide] | 1800 |
| O=C(Nc1ccc2ccccc2n1)c1cccc(NC(=O)c2ccccc2Cl)c1 [Compound 9, 3-(2-Chloro-benzoylamino)-N-(quinolin-2-yl-)-benzamide] | 600 |
| O=C(Nc1ccc(-c2ccccc2)cn1)c1cccc(NCc2ccccc2C(F)(F)F)c1 [Compound 166, 3-[2-(Trifluoromethyl)-benzylamino]-N-(5-phenyl-pyridine-2-yl)-benzamide] | 53 |
| O=C(NCc1cccc2ccccc12)c1cccc(NC(=O)c2ccccc2-c2cccs2)c1 [Compound 116, N-{3-[(Naphthalen-1-ylmethyl)-carbamoyl]-phenyl}-2-thiopene-2-yl-benzamide] | 2500 |
| O=C(NCc1cccc(-c2ccccc2)c1)c1cccc(NC(=O)c2ccccc2C(F)(F)F)c1 [Compound 137, N-(3-Phenyl-benzyl)-3-(2-trifluoromethyl-benzoylamino)-benzamide] | 320 |
| COc1cccc(OC)c1C(=O)Nc1cccc(C(=O)N[C@@H](C)c2cccc3ccccc23)c1 [Compound 76, 2,6-Dimethoxy-N-[3-((S)-1-naphthalen-1-yl-ethylcarbamoyl)-phenyl]-benzamide] | 4100 |
| O=C(NCc1cccc2ccccc12)c1cccc(NC(=O)c2ccccc2C(F)(F)F)c1 [Compound 109, N-{3-[(Naphthalen-1-ylmethyl)-carbamoyl]-phenyl}-2-trifluoromethyl-benzamide] | 130 |
| CC(=O)Oc1ccccc1C(=O)Nc1cccc(C(=O)NC2CCCCCC2)c1 [Compound 66, Acetic acid 2-(3-cycloheptylcarbamoyl-phenylcarbamoyl)-phenyl ester] | 9900 |
| CCc1ccccc1C(=O)Nc1cccc(C(=O)Nc2ccc3ccccc3n2)c1 [Compound 52, 3-(2-Ethyl-benzoylamino)-N-quinolin-2-yl-benzamide] | 6900 |
| C[C@@H](NC(=O)c1cccc(NC(=O)c2ccccc2F)c1)c1cccc2ccccc12 [Compound 88, 2-Fluoro-N-[3-((R)-1-naphthalen-1-yl-ethylcarbamoyl)-phenyl]-benzamide] | 2300 |
| O=C(NCc1cccc2ccccc12)c1cccc(NC(=O)c2ccccc2I)c1 [Compound 112, 2-Iodo-N-{3-[(naphthalen-1-ylmethyl)-carbamoyl]-phenyl}-benzamide] | 220 |
| O=C(Nc1ccccn1)c1cccc(NC(=O)c2ccccc2Cl)c1 [Compound 12, 3-(2-Chloro-benzoylamino)-N-(pyridine-2-yl)-benzamide] | 1300 |
| COc1cccc(OC)c1C(=O)Nc1cccc(C(=O)NCc2cccc3ccccc23)c1 [Compound 108, 2,6-Dimethoxy-N-{3-[(naphthalen-1-ylmethyl)-carbamoyl]-phenyl}-benzamide] | 2200 |
| Cc1ccccc1CNC(=O)c1cccc(NC(=O)c2ccccc2C(F)(F)F)c1 [Compound 142, N-(2-Methyl-benzyl)-3-(2-trifluoromethyl-benzoylamino)-benzamide] | 1000 |
| COc1ccccc1C(=O)Nc1cccc(C(=O)Nc2ccc3ccccc3n2)c1 [Compound 41, 3-(2-Methoxy-benzoylamino)-N-quinolin-2-yl-benzamide] | 3700 |
| COc1cccc(OC)c1C(=O)Nc1cccc(C(=O)Nc2ccc3ccccc3n2)c1 [Compound 42, 3-(2,6-Dimethoxy-benzoylamino)-N-quinolin-2-yl-benzamide] | 3100 |
| O=C(NCc1cccc2ccccc12)c1cccc(NCc2ccccc2Br)c1 [Compound 122, 3-(2-Bromo-benzylamino)-N-naphthalen-1-ylmethyl-benzamide] | 1000 |
| O=C(Nc1cccc(CNCc2ccccc2C(F)(F)F)c1)c1ccccc1C(F)(F)F [Compound 125, 2-Trifluoromethyl-N-{3-[(2-trifluoromethyl-benzylamino)-methyl]-phenyl}-benzamide] | 1800 |
| O=C(NCc1ccccc1-c1ccccc1)c1cccc(NC(=O)c2ccccc2C(F)(F)F)c1 [Compound 136, N-(2-Phenyl-benzyl)-3-(2-trifluoromethyl-benzoylamino)-benzamide] | 200 |
| C[C@H](NC(=O)c1cccc(NC(=O)c2ccccc2Cl)c1)c1cccc2ccccc12 [Compound 85, 2-Chloro-N-[3-((S)-1-naphthalen-1-yl-ethylcarbamoyl)-phenyl]-benzamide] | 370 |

| SMILES | IC50 [nM] |
| --- | --- |
| O=C(Nc1ccc2ncsc2c1)c1cccc(NC(=O)c2ccccc2Cl)c1 [Compound 14, 3-(2-Chloro-benzoylamino)-N-(benzothiazol-6-yl)-benzamide] | 900 |
| Cc1cc(NC(=O)c2cccc(NC(=O)c3ccccc3Cl)c2)c2ccccc2n1 [Compound 3, 3-(2-Chloro-benzoylamino)-N-(2-methyl-quinolin-4-yl)-benzamide] | 1100 |
| CCCCNC(=O)c1cccc(NC(=O)c2ccccc2Cl)c1 [Compound 4, 3-(2-Chloro-benzoylamino)-N-butyl-benzamide] | 3900 |
| O=C(NC1CCCc2ccccc21)c1cccc(NC(=O)c2ccccc2Cl)c1 (stereo not shown) [Compound 35, 3-(2-Chloro-benzoylamino)-N-(1,2,3,4-tetrahydro-naphthalen-1-yl)-benzamide] | 860 |
| O=C(NC1CCCCCC1)c1cccc(NC(=O)c2c(Cl)cccc2Cl)c1 [Compound 55, 2,6-Dichloro-N-(3-cycloheptylcarbamoyl-phenyl)-benzamide] | 630 |
| CC(=O)Oc1ccccc1C(=O)Nc1cccc(C(=O)Nc2ccc3ccccc3n2)c1 [Compound 50, Acetic acid 2-[3-(quinolin-2-ylcarbamoyl)-phenylcarbamoyl]-phenyl ester] | 3000 |
| Cc1ccccc1C(=O)Nc1cccc(C(=O)Nc2ccc3ccccc3n2)c1 [Compound 44, 3-(2-Methyl-benzoylamino)-N-quinolin-2-yl-benzamide] | 650 |
| O=C(Nc1ccc2ccccc2n1)c1cccc(NC(=O)c2ccccc2I)c1 [Compound 46, 3-(2-Iodo-benzoylamino)-N-quinolin-2-yl-benzamide] | 290 |
| O=C(NCc1ccccc1C(F)(F)F)c1cccc(NC(=O)c2ccccc2C(F)(F)F)c1 [Compound 134, 3-(2-Trifluoromethyl-benzoylamino)-N-(2-trifluoromethyl-benzyl)-benzamide] | 70 |
| O=C(NCc1ccccc1)c1cccc(NC(=O)c2ccccc2C(F)(F)F)c1 [Compound 141, N-(Benzyl)-3-(2-trifluoromethyl-benzoylamino)-benzamide] | 280 |
| Cc1ccccc1C(=O)Nc1cccc(C(=O)N[C@@H](C)c2cccc3ccccc23)c1 [Compound 78, 2-Methyl-N-[3-((S)-1-naphthalen-1-yl-ethylcarbamoyl)-phenyl]-benzamide] | 690 |
| O=C(NCc1cccc2ccccc12)c1cccc(NC(=O)c2ccccc2Br)c1 [Compound 103, 2-Bromo-N-{3-[(naphthalen-1-ylmethyl)-carbamoyl]-phenyl}-benzamide] | 180 |
| COc1cccc(OC)c1C(=O)Nc1cccc(C(=O)N[C@H](C)c2cccc3ccccc23)c1 [Compound 92, 2,6-Dimethoxy-N-[3-((R)-1-naphthalen-1-yl-ethylcarbamoyl)-phenyl]-benzamide] | 1300 |
| C[C@@H](NC(=O)c1cccc(NC(=O)c2ccccc2Br)c1)c1cccc2ccccc12 [Compound 87, 2-Bromo-N-[3-((R)-1-naphthalen-1-yl-ethylcarbamoyl)-phenyl]-benzamide] | 380 |
| C[C@@H](NC(=O)c1cccc(NC(=O)c2c(Cl)cccc2Cl)c1)c1cccc2ccccc12 [Compound 89, 2,6-Dichloro-N-[3-((R)-1-naphthalen-1-yl-ethylcarbamoyl)-phenyl]-benzamide] | 600 |
| O=C(Nc1nc2cc(Cl)ccc2o1)c1cccc(NC(=O)c2ccccc2C(F)(F)F)c1 [Compound 164, N-(3-(5-chlorobenzo[d]oxazol-2-ylcarbamoyl)phenyl)-2-(trifluoromethyl)benzamide] | 68 |
| O=C(NCc1ccccc1)c1cccc(NC(=O)c2ccccc2Cl)c1 [Compound 2, 3-(2-Chloro-benzoylamino)-N-benzyl-benzamide] | 5800 |
| O=C(NCc1ccccc1N1CCOCC1)c1cccc(NC(=O)c2ccccc2C(F)(F)F)c1 [Compound 149, N-(2-morpholin-4-yl-benzyl)-3-(2-trifluoromethyl-benzoylamino)-benzamide] | 2000 |
| C[C@@H](NC(=O)c1cccc(NC(=O)c2ccccc2Cl)c1)c1cccc2ccccc12 [Compound 101, 2-Chloro-N-[3-((R)-1-naphthalen-1-yl-ethylcarbamoyl)-phenyl]-benzamide] | 290 |
| COc1cccc(OC)c1C(=O)Nc1cccc(C(=O)NC2CCCCCC2)c1 [Compound 65, N-(3-Cycloheptylcarbamoyl-phenyl)-2,6-dimethoxy-benzamide] | 6900 |

Reference: patent US20100324086A1, “COMPOUNDS AND METHODS” (Novasaid AB, priority 2008, published 2010)
